In patent publication US7205305B2, “Inhibitors of p38” (Vertex Pharmaceuticals Incorporated, priority 1996, dated 2007):

Experiments:
[1] = tested on: IL-1 production in LPS-stimulated PBMCs; test: Inhibition of IL-1 production in LPS-stimulated PBMCs ("cell"); assay type: cell-based, human; conditions: Homo sapiens, PBMC
Protocol: (§1) Inhibitors were serially diluted in DMSO from a 20 mM stock. At least 6 serial dilutions were prepared. Then 4× inhibitor stocks were prepared by adding 4 μl of an inhibitor dilution to 1 ml of RPMI1640 medium/10% fetal bovine serum. The 4× inhibitor stocks contained inhibitor at concentrations of 80 μM, 32 μM, 12.8 μM, 5.12 μM, 2.048 μM, 0.819 μM, 0.328 μM, 0.131 μM, 0.052 μM, 0.021 μM etc. The 4× inhibitor stocks were pre-warmed at 37° C. until use.
(§2) Fresh human blood buffy cells were separated from other cells in a Vacutainer CPT from Becton & Dickinson (containing 4 ml blood and enough DPBS without Mg^2+/Ca^2+ to fill the tube) by centrifugation at 1500×g for 15 min. Peripheral blood mononuclear cells (PBMCs), located on top of the gradient in the Vacutainer, were removed and washed twice with RPMI1640 medium/10% fetal bovine serum. PBMCs were collected by centrifugation at 500×g for 10 min. The total cell number was determined using a Neubauer Cell Chamber and the cells were adjusted to a concentration of 4.8×10^6 cells/ml in cell culture medium (RPMI1640 supplemented with 10% fetal bovine serum).
(§3) We placed 100 μl of cell suspension or whole blood in each well of a 96-well cell culture plate. Then we added 50 μl of the 4× inhibitor stock to the cells. Finally, we added 50 μl of a lipopolysaccharide (LPS) working stock solution (16 ng/ml in cell culture medium) to give a final concentration of 4 ng/ml LPS in the assay. The total assay volume of the vehicle control was also adjusted to 200 μl by adding 50 μl cell culture medium. The PBMC cells or whole blood were then incubated overnight (for 12–15 hours) at 37° C./5% CO2 in a humidified atmosphere.
(§4) The next day the cells were mixed on a shaker for 3–5 minutes before centrifugation at 500×g for 5 minutes. Cell culture supernatants were harvested and analyzed by ELISA for levels of IL-1b (R & D Systems, Quantikine kits, #DBL50), TNF-α (BioSource, #KHC3012), IL-6 (Endogen, #EH2-IL6) and IL-8 (Endogen, #EH2-IL8) according to the instructions of the manufacturer. The ELISA data were used to generate dose-response curves from which IC50 values were derived.

activated p38 = activated p38 (Homo sapiens, UniProt Q16539); test: Inhibition of phosphorylation of EGF receptor peptide ("kinase"); assay type: biochemical; conditions: inhibition of phosphorylation of EGF receptor peptide by activated p38
Sequence of activated p38 (Q16539 whole entry): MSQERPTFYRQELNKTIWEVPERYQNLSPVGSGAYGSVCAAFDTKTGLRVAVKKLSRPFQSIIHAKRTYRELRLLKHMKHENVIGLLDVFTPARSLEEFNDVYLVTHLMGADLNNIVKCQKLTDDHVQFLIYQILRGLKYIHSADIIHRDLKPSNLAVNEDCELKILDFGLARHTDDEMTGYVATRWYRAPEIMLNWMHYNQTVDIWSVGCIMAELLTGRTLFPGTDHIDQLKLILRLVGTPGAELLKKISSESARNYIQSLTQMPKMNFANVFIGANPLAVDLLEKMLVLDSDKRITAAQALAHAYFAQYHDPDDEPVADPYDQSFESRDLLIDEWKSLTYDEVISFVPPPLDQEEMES
Protocol: This assay was carried out in the presence of 10 mM MgCl2, 25 mM β-glycerophosphate, 10% glycerol and 100 mM HEPES buffer at pH 7.6. […] The stock solution was aliquotted into vials. A fixed volume of DMSO or inhibitor in DMSO (final concentration of DMSO in reaction was 5%) was introduced to each vial, mixed and incubated for 15 minutes at room temperature. EGF receptor peptide, […], a phosphoryl acceptor in p38-catalyzed kinase reaction (1), was added to each vial to a final concentration of 200 μM. The kinase reaction was initiated with ATP (100 μM) and the vials were incubated at 30° C. After 30 minutes, the reactions were quenched with equal volume of 10% trifluoroacetic acid (TFA).
The phosphorylated peptide was quantified by HPLC analysis. Separation of phosphorylated peptide from the unphosphorylated peptide was achieved on a reverse phase column (Deltapak, 5 μm, C18 100D, part no. 011795) with a binary gradient of water and acteonitrile, each containing 0.1% TFA.

[2] = tested on: IL-6 production in whole blood; test: Inhibition of IL-6 production in LPS-stimulated whole blood ("WB"); assay type: cell-based, human; conditions: Homo sapiens
Protocol: as §1
(§5) Alternatively, whole blood containing an anti-coagulant was used directly in the assay.
as §3, §4

[3] = tested on: TNF production in LPS-stimulated PBMCs; test: Inhibition of TNF production in LPS-stimulated PBMCs ("cell"); assay type: cell-based, human; conditions: Homo sapiens, PBMC
Protocol: as §1, §2, §3, §4

[4] = tested on: TNF production in whole blood; test: Inhibition of TNF production in LPS-stimulated whole blood ("WB"); assay type: cell-based, human; conditions: Homo sapiens
Protocol: as §1, §5, §3, §4

[5] = tested on: IL-1 production in whole blood; test: Inhibition of IL-1 production in LPS-stimulated whole blood ("WB"); assay type: cell-based, human; conditions: Homo sapiens
Protocol: as §1, §5, §3, §4

For `O=C1NCN2N=C(Sc3ccc(F)cc3Cl)C=CC2=C1c1c(Cl)cccc1Cl` [Compound 127], the IC50 [1] was no more than 100 nM, the IC50 (activated p38) was no more than 100 nM and the IC50 [2] was no more than 250 nM. It also gave an IC50 [3] of no more than 100 nM, an IC50 [4] of 250 to 500 nM and an IC50 [5] of 250 to 500 nM.

For `O=c1ncn2nc(Sc3ccccc3O)ccc2c1-c1c(Cl)cccc1Cl` [Compound 33], the IC50 [1] was 100 to 500 nM, the IC50 (activated p38) was 100 to 1000 nM and the IC50 [2] was no less than 500 nM. It also gave an IC50 [3] of 100 to 500 nM, an IC50 [4] of no less than 500 nM and an IC50 [5] of no less than 500 nM.

`NCc1ccccc1SC1=NN2CNC(=O)C(c3c(Cl)cccc3Cl)=C2C=C1` [Compound 118] was tested, and the IC50 [1] was 100 to 500 nM, the IC50 (activated p38) was 100 to 1000 nM and the IC50 [2] was no less than 500 nM. For the same compound, the IC50 [3] was 100 to 500 nM, the IC50 [4] was no less than 500 nM and the IC50 [5] was no less than 500 nM.

`O=C1NCN2N=C(Sc3ccc(F)cc3Cl)C=CC2=C1c1cc2c(cc1Cl)OCO2` [Compound 136] showed an IC50 [1] of no more than 100 nM, an IC50 (activated p38) of no more than 100 nM and an IC50 [2] of 250 to 500 nM. It also gave an IC50 [3] of no more than 100 nM, an IC50 [4] of no less than 500 nM and an IC50 [5] of no less than 500 nM.

Work on `O=c1ncn2nc(Sc3ccccn3)ccc2c1-c1c(Cl)cccc1Cl` [Compound 30] yielded an IC50 [1] of no less than 500 nM, an IC50 (activated p38) of no less than 1000 nM and an IC50 [3] of no less than 500 nM. It also gave an IC50 [5] of no less than 500 nM.

`O=c1ncn2nc(Sc3ccc(F)c(Cl)c3)ccc2c1-c1c(Cl)cccc1Cl` [Compound 24] was tested, and the IC50 [1] was 100 to 500 nM, the IC50 (activated p38) was 100 to 1000 nM and the IC50 [3] was 100 to 500 nM. The IC50 [4] was no less than 500 nM and the IC50 [5] was no less than 500 nM.

In the case of `COC(=O)CCc1ccc(SC2=NN3CNC(=O)C(c4c(Cl)cccc4Cl)=C3C=C2)cc1` [Compound 120], the IC50 [1] is reported as 100 to 500 nM, the IC50 [2] is reported as no less than 500 nM and the IC50 [3] is reported as no less than 500 nM. For the same compound, the IC50 [4] was no less than 500 nM and the IC50 [5] was no less than 500 nM.

`COc1ccccc1-c1c(=O)ncn2nc(Sc3ccccc3)ccc12` [Compound 11] showed an IC50 [1] of no less than 500 nM, an IC50 (activated p38) of no less than 1000 nM and an IC50 [3] of no less than 500 nM.

`Cc1c(Sc2ccccc2)nn2cnc(=O)c(-c3c(Cl)cccc3Cl)c2c1C` [Compound 13] showed an IC50 [1] of no less than 500 nM, an IC50 (activated p38) of no less than 1000 nM and an IC50 [3] of no less than 500 nM.

Compound `Cc1cc(Cl)c(-c2c(=O)ncn3nc(Sc4ccc(F)cc4)ccc23)cc1C` [Compound 44] has an IC50 [1] of no less than 500 nM, an IC50 (activated p38) of 100 to 1000 nM and an IC50 [3] of no less than 500 nM.

In the case of `Cc1cccc(Sc2ccc3c(-c4c(Cl)cccc4Cl)c(=O)ncn3n2)c1` [Compound 15], the IC50 [1] is reported as 100 to 500 nM, the IC50 (activated p38) is reported as no less than 1000 nM and the IC50 [3] is reported as 100 to 500 nM.

With `Cc1cc(SC2=NN3CNC(=O)C(c4c(Cl)cccc4Cl)=C3C=C2)c(Cl)cc1F` [Compound 133] the IC50 [1] was no more than 100 nM, the IC50 (activated p38) was no more than 100 nM and the IC50 [3] was no more than 100 nM.

With `Cc1ccc(Sc2ccc3c(-c4c(Cl)cccc4Cl)c(=O)ncn3n2)cc1` [Compound 14] the IC50 [1] was 100 to 500 nM, the IC50 (activated p38) was no less than 1000 nM and the IC50 [3] was no less than 500 nM.

Work on `NC(=O)c1ccccc1SC1=NN2CNC(=O)C(c3c(Cl)cccc3Cl)=C2C=C1` [Compound 105] yielded an IC50 [1] of no less than 500 nM, an IC50 (activated p38) of 100 to 1000 nM and an IC50 [3] of no less than 500 nM.

For `O=C1NCN2N=C(Sc3ccccn3)C=CC2=C1c1c(Cl)cccc1Cl` [Compound 107], the IC50 [1] was no less than 500 nM, the IC50 (activated p38) was 100 to 1000 nM and the IC50 [3] was no less than 500 nM.

In the case of `NC(=O)C(c1cccc(-c2ccccc2CNc2ccccc2)n1)c1c(Cl)cccc1Cl` (centres unmarked) [Compound 358], the IC50 [1] is reported as no less than 500 nM, the IC50 (activated p38) is reported as 100 to 1000 nM and the IC50 [3] is reported as no less than 500 nM.

Work on `Cc1ccccc1-c1cccc(N(C(N)=O)c2c(C)cccc2C)n1` [Compound 405] yielded an IC50 [1] of no more than 100 nM, an IC50 (activated p38) of no more than 100 nM and an IC50 [3] of 100 to 500 nM.

In the case of `O=C1NCN2C=C(Sc3ccccc3)C=CC2=C1c1c(Cl)cccc1Cl` [Compound 110], the IC50 [1] is reported as no less than 500 nM, the IC50 (activated p38) is reported as 100 to 1000 nM and the IC50 [3] is reported as no less than 500 nM.

`O=c1ncn2nc(Sc3ccccc3)ccc2c1-c1c(F)cccc1C(F)(F)F` [Compound 22] showed an IC50 [1] of no less than 500 nM, an IC50 (activated p38) of no less than 1000 nM and an IC50 [3] of no less than 500 nM.

With `O=c1ncn2nc(Sc3ccc(Cl)c(Cl)c3)ccc2c1-c1c(Cl)cccc1Cl` [Compound 16] the IC50 [1] was no less than 500 nM, the IC50 (activated p38) was 100 to 1000 nM and the IC50 [3] was 100 to 500 nM.

For `NC(=O)C(c1cccc(-c2ccc(Cl)cc2)n1)c1c(Cl)cccc1Cl` (centres unmarked) [Compound 310], the IC50 [1] was no less than 500 nM, the IC50 (activated p38) was 100 to 1000 nM and the IC50 [3] was no less than 500 nM.

`NC(=O)C(c1cccc(-c2cccc(Cl)c2)n1)c1c(F)cccc1Cl` (centres unmarked) [Compound 341] gave an IC50 [1] of 100 to 500 nM, an IC50 (activated p38) of 100 to 1000 nM and an IC50 [3] of 100 to 500 nM.
